pEC50, pIC50: −log10 of the molar value. Like-named read-outs stand apart in the source and are kept apart here.
How the values were obtained:
human DGKα = target: T1, human DGKα (Homo sapiens, UniProt P23743); assay: DGKα LIPGLO assay (extruded liposome substrate), in vitro DGK inhibition; type: biochemical; details: DGKα liposome (LIPGLO) assay; read-out: DGKa LIPGLO IC50
T1 construct: TVMV protease cleavage site (C); Hexa-His (C); made in house; host or cells: Sf9 insect cells (baculovirus, Bac-to-Bac)
T1 sequence (P23743 with tags, fused parts or gaps): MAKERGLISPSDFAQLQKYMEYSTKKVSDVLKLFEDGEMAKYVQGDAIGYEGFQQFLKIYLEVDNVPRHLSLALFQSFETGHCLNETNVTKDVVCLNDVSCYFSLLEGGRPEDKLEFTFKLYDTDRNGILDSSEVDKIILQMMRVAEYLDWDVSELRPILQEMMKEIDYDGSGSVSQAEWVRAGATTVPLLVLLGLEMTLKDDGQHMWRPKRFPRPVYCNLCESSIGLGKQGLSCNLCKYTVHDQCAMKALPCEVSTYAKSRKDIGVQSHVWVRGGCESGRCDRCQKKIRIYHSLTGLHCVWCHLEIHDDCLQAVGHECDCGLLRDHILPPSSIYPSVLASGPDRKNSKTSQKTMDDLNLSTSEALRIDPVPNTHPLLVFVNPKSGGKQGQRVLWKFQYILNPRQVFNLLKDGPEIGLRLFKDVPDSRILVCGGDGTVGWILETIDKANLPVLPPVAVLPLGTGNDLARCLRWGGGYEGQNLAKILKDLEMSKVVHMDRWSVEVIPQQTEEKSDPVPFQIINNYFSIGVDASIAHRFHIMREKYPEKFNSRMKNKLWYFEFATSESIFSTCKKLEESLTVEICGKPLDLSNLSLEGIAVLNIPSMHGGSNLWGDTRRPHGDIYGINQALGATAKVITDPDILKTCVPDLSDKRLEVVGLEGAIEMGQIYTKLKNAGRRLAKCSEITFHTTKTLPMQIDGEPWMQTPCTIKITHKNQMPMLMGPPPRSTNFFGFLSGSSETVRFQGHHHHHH

Human venous whole blood = assay: Human whole blood IFN-γ assay; type: cell-based; details: human whole blood, anti-CD3 plus anti-CD28, 24 hours, 3 μM reference compound = 100% activation, read-out: INFg Whole Blood Normalized Agonist EC50;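 further: blood from healthy donors exposed to compound for 1 h before stimulation with anti-CD3 and anti-CD28 at 1 µg/mL each, IFN-γ quantified in supernatant by AlphaLISA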
Protocol: Human Whole Blood IFN-γ Assay
Human venous whole blood (22.5 μL per well), obtained from healthy donors, was pre-treated with compounds for one hour at 37° C. in a humidified 95% air/5% CO2 incubator. The blood was stimulated with 2.5 μL anti-human CD3 and anti-CD28 mAb at a final concentration of 1 μg/mL each for 24 hours at 37° C. IFN-γ in the supernatants was measured using AlphLISA kit (Cat # AL217).

human DGKζ = target: T2, human DGKζ (Homo sapiens, UniProt Q13574); assay: DGKζ LIPGLO assay (extruded liposome substrate), in vitro DGK inhibition; type: biochemical; details: DGKζ liposome (LIPGLO) assay; read-out: DGKz LIPGLO IC50
T2 construct: TVMV protease cleavage site (C); Hexa-His (C); made in house; host or cells: Sf9 insect cells (baculovirus, Bac-to-Bac)
T2 sequence (Q13574 with tags, fused parts or gaps isoform Q13574-4): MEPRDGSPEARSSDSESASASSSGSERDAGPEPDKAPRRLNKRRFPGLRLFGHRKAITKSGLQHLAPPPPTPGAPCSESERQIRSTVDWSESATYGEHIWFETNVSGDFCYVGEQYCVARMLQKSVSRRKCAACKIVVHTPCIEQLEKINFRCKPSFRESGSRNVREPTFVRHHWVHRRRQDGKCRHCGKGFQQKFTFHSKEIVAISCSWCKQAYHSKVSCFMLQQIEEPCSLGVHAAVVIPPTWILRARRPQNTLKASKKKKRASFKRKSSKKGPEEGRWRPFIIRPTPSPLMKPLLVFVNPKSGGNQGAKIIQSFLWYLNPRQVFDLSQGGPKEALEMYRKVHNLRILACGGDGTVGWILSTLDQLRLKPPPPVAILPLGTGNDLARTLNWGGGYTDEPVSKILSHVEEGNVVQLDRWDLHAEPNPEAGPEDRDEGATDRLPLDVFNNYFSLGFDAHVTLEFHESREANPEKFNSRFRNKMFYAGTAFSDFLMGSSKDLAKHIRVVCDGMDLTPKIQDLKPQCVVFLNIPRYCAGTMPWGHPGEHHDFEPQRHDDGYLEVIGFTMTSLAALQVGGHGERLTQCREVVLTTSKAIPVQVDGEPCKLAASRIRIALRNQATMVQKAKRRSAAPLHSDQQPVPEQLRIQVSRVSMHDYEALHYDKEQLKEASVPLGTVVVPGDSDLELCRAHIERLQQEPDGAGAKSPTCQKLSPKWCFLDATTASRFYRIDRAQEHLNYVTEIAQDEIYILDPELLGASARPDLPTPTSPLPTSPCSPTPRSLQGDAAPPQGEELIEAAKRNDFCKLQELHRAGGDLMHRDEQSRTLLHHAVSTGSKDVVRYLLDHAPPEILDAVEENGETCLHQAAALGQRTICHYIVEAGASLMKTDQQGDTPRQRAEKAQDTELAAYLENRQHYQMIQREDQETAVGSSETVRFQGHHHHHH

SMILES | pIC50 (human DGKα) | pEC50 (Human venous whole blood; Homo sapiens, 24 h) | pIC50 (human DGKζ) | pEC50 (Human venous whole blood)
C[C@@H]1CN(c2c(C#N)c(=O)n(C)c3ccc(C#N)nc23)[C@@H](C)CN1C(c1ccc(Cl)cc1)c1ccc(F)cn1 (single isomer, unassigned) [Example 829] | 5.26 | 5.92 | 5.10 | –
C[C@@H]1CN(c2c(C#N)c(=O)n(C)c3ccc(C#N)nc23)[C@@H](C)CN1C(c1ccc(Cl)cc1)c1ccc(F)cn1 (single isomer, unassigned) [Example 830] | 5.82 | – | 5.02 | 5.72
C[C@@H]1CN(c2c(C#N)c(=O)n(C)c3ccc(C#N)nc23)[C@@H](C)CN1C(c1ccc(F)cc1)c1ccc(C(F)(F)F)cn1 (single isomer, unassigned) [Example 836] | 5.33 | 5.96 | 5.31 | –
C[C@@H]1CN(c2c(C#N)c(=O)n(C)c3ccc(C#N)nc23)[C@@H](C)CN1C(c1cccc(F)c1)c1ccc(C(F)(F)F)cn1 (single isomer, unassigned) [Example 840] | 4.66 | – | 5.55 | 6.09
C[C@@H]1CN(c2c(C#N)c(=O)n(C)c3ccc(C#N)nc23)[C@@H](C)CN1C(c1cccc(F)c1)c1ccc(C(F)(F)F)cn1 (single isomer, unassigned) [Example 841] | 4.08 | – | 4.96 | 5.48
C[C@@H]1CN(c2c(C#N)c(=O)n(C)c3ccc(C#N)nc23)[C@@H](C)CN1C(c1ccc(F)cc1)c1ccccn1 (single isomer, unassigned) [Example 842] | 5.92 | – | 5.48 | 4.70
C[C@@H]1CN(c2c(C#N)c(=O)n(C)c3ccc(C#N)nc23)[C@@H](C)CN1C(c1ccc(F)cc1)c1ccccn1 (single isomer, unassigned) [Example 843] | 6.12 | – | 6.06 | 5.42
C[C@@H]1CN(c2c(C#N)c(=O)n(C)c3ccc(C#N)nc23)[C@@H](C)CN1C(c1ccc(F)cc1)c1cccc(C(F)(F)F)n1 (single isomer, unassigned) [Example 844] | 4.00 | 5.57 | 5.28 | –
C[C@@H]1CN(c2c(C#N)c(=O)n(C)c3ccc(C#N)nc23)[C@@H](C)CN1C(c1ccc(F)cc1)c1cccc(C(F)(F)F)n1 (single isomer, unassigned) [Example 845] | 5.60 | – | 5.21 | 5.82
C[C@@H]1CN(c2c(C#N)c(=O)n(C)c3ccc(C#N)nc23)[C@@H](C)CN1C(c1ccc(F)cc1)c1ccon1 (single isomer, unassigned) [Example 850] | 6.29 | – | 5.27 | 5.44
C[C@@H]1CN(c2c(C#N)c(=O)n(C)c3ccc(C#N)nc23)[C@@H](C)CN1C(c1ccc(F)cc1)c1ccon1 (single isomer, unassigned) [Example 851] | 5.89 | – | 4.57 | 4.70
C[C@@H]1CN(c2c(C#N)c(=O)n(C)c3ccc(C#N)nc23)[C@@H](C)CN1C(c1ccc(F)cc1)c1cn(C)cn1 (single isomer, unassigned) [Example 853] | 4.72 | 4.70 | 4.42 | –
C[C@@H]1CN(c2c(C#N)c(=O)n(C)c3ccc(C#N)nc23)[C@@H](C)CN1C(c1ccc(F)cc1)c1ccns1 (single isomer, unassigned) [Example 854] | 5.29 | 5.00 | 5.72 | –
C[C@@H]1CN(c2c(C#N)c(=O)n(C)c3ccc(C#N)nc23)[C@@H](C)CN1C(c1ccc(F)cc1)c1cscn1 (single isomer, unassigned) [Example 857] | 6.00 | 5.85 | 5.72 | –
C[C@@H]1CN(c2c(C#N)c(=O)n(C)c3ccc(C#N)nc23)[C@@H](C)CN1C(c1ccc(F)cc1)c1csc(C2CC2)n1 (single isomer, unassigned) [Example 858] | 6.32 | – | 6.82 | 5.77
C[C@@H]1CN(c2c(C#N)c(=O)n(C)c3ccc(C#N)nc23)[C@@H](C)CN1C(c1ccc(F)cc1)c1csc(C2CC2)n1 (single isomer, unassigned) [Example 859] | 5.52 | – | 6.44 | 5.43
C[C@@H]1CN(c2c(C#N)c(=O)n(C)c3ccc(C#N)nc23)[C@@H](C)CN1C(c1ccc(F)cc1)c1nc(C2CC2)no1 (single isomer, unassigned) [Example 860] | 6.39 | 6.14 | 5.89 | –
C[C@@H]1CN(c2c(C#N)c(=O)n(C)c3ccc(C#N)nc23)[C@@H](C)CN1C(c1ccc(F)cc1)c1nc(C2CC2)no1 (single isomer, unassigned) [Example 861] | 6.38 | – | 6.20 | 6.38
CC1CN(C(c2ccc(F)cc2)c2nc(C(C)(C)C)no2)C(C)CN1c1c(C#N)c(=O)n(C)c2ccc(C#N)nc12 (single isomer, unassigned) [Example 862] | 6.54 | 5.92 | 6.22 | –

SMILES | pIC50 (human DGKα) | pEC50 (Human venous whole blood; Homo sapiens, 24 h) | pIC50 (human DGKζ) | pEC50 (Human venous whole blood)
CC1CN(C(c2ccc(F)cc2)c2nc(C(C)(C)C)no2)C(C)CN1c1c(C#N)c(=O)n(C)c2ccc(C#N)nc12 (single isomer, unassigned) [Example 863] | 6.28 | – | 6.72 | 6.14
Cc1cc(C(c2ccc(F)cc2)N2C[C@H](C)N(c3c(C#N)c(=O)n(C)c4ccc(C#N)nc34)C[C@H]2C)no1 (single isomer, unassigned) [Example 864] | 6.77 | 5.19 | 6.00 | –
C[C@@H]1CN(c2c(C#N)c(=O)n(C)c3ccc(C#N)nc23)[C@@H](C)CN1C(c1ccc(F)cc1)c1cc(C(C)(C)C)on1 (single isomer, unassigned) [Example 866] | 6.41 | – | 6.03 | 5.64
C[C@@H]1CN(c2c(C#N)c(=O)n(C)c3ccc(C#N)nc23)[C@@H](C)CN1C(c1ccc(F)cc1)c1cc(C(C)(C)C)on1 (single isomer, unassigned) [Example 867] | < 3.60 | – | 5.10 | 4.70
C[C@@H]1CN(c2c(C#N)c(=O)n(C)c3ccc(C#N)nc23)[C@@H](C)CN1C(c1ccc(F)cc1)c1cc(C2CC2)on1 (single isomer, unassigned) [Example 868] | 6.36 | 5.66 | 5.62 | –
C[C@@H]1CN(c2c(C#N)c(=O)n(C)c3ccc(C#N)nc23)CCN1C(c1ccc(F)cc1)c1ccc(C#N)cc1 (single isomer, unassigned) [Example 871] | 5.96 | 5.52 | 5.89 | –
C[C@@H]1CN(c2c(C#N)c(=O)n(C)c3ccc(C#N)nc23)CCN1C(c1ccccc1)c1cc(F)cc(F)c1 (single isomer, unassigned) [Example 875] | 5.77 | 5.51 | 6.29 | –
C[C@@H]1CN(c2c(C#N)c(=O)n(C)c3ccc(C#N)nc23)CCN1C(c1ccccc1)c1ccc(F)cc1 (single isomer, unassigned) [Example 878] | 5.72 | – | 5.89 | 6.24
C[C@@H]1CN(c2c(C#N)c(=O)n(C)c3ccc(C#N)nc23)CCN1C(c1ccccc1)c1ccc(F)cc1 (single isomer, unassigned) [Example 879] | 6.22 | – | 5.96 | 5.92
Cc1ccc(C(c2ncccc2F)N2CCN(c3c(C#N)c(=O)n(C)c4ccc(C#N)nc34)C[C@H]2C)cc1 (single isomer, unassigned) [Example 890] | 4.96 | 5.18 | 5.08 | –
C[C@@H]1CN(c2c(C#N)c(=O)n(C)c3ccc(C#N)nc23)CCN1C(c1ccc(F)cc1)c1ncccc1F (single isomer, unassigned) [Example 891] | 5.51 | 5.55 | 5.52 | –
Cc1ccc(C(c2ncccc2F)N2CCN(c3c(C#N)c(=O)n(C)c4ccc(C#N)nc34)C[C@H]2C)cc1 (single isomer, unassigned) [Example 892] | 5.74 | – | 5.89 | 5.30
C[C@@H]1CN(c2c(C#N)c(=O)n(C)c3ccc(C#N)nc23)CCN1C(c1ccc(F)cc1)c1ncccc1F (single isomer, unassigned) [Example 893] | 6.04 | – | 6.14 | 5.77
COc1ncccc1C(c1ccc(F)cc1)N1CCN(c2c(C#N)c(=O)n(C)c3ccc(C#N)nc23)C[C@H]1C (single isomer, unassigned) [Example 894] | 5.07 | – | 6.17 | 5.40
COc1ncccc1C(c1ccc(F)cc1)N1CCN(c2c(C#N)c(=O)n(C)c3ccc(C#N)nc23)C[C@H]1C (single isomer, unassigned) [Example 895] | 6.15 | – | 5.57 | 5.74
C[C@@H]1CN(c2c(C#N)c(=O)n(C)c3ccc(C#N)nc23)CCN1C(c1ccc(F)cc1)c1ccc(C(F)(F)F)cn1 (single isomer, unassigned) [Example 897] | 6.60 | – | 5.29 | 4.89
Cc1ccc(C(c2ccc(F)cc2)N2CCN(c3c(C#N)c(=O)n(C)c4ccc(C#N)nc34)C[C@H]2C)nc1 (single isomer, unassigned) [Example 904] | 6.77 | 6.28 | 5.85 | –
Cc1cccc(C(c2ccc(F)cc2)N2CCN(c3c(C#N)c(=O)n(C)c4ccc(C#N)nc34)C[C@H]2C)n1 (single isomer, unassigned) [Example 905] | 5.34 | 5.89 | 5.92 | –
C[C@@H]1CN(c2c(C#N)c(=O)n(C)c3ccc(C#N)nc23)CCN1C(c1ccc(F)cc1)c1ccc(C#N)cn1 (single isomer, unassigned) [Example 908] | 6.11 | – | 5.41 | 5.85
